According to ChEMBL document CHEMBL1955855, “A domino Knoevenagel hetero-Diels-Alder reaction for the synthesis of polycyclic chromene derivatives and evaluation of their cytotoxicity” (Bioorg Med Chem Lett, 2012):

How the values were obtained:
A549 = assay: Cytotoxicity against human A549 cells after 72 hrs by MTT assay; assay type: functional, cell-based
B16 = assay: Cytotoxicity against mouse B16 cells after 72 hrs by MTT assay; assay type: functional, cell-based
[1] = Homo sapiens, A549, 72 h, read-out: IC50
[2] = Mus musculus, B16, 72 h, read-out: IC50

| SMILES | IC50 (A549; [1]) [µM] | IC50 (B16; [2]) [µM] | IC50 (B16; b16) | IC50 (A549; a549) |
| --- | --- | --- | --- | --- |
| COc1cccc2c1C(=O)c1c(O)c3c(c(O)c1C2=O)C[C@@](O)(C(=O)CO)C[C@@H]3O[C@H]1C[C@H](N)[C@H](O)[C@H](C)O1 [DOXORUBICIN] | < 0.1 | < 0.1 |  |  |
| CC1(C)OC2=C(C(=O)CCC2)[C@H]2C3=Cc4ccccc4O[C@@]3(C)CC[C@H]21 (relative stereo) | 20.8 | 12.8 |  |  |
| CC1(C)OC2=C(C(=O)c3ccccc32)[C@H]2C3=Cc4cc(Cl)ccc4O[C@@]3(C)CC[C@H]21 | 26.3 |  | Not Active |  |
| CC1(C)CC(=O)C2=C(C1)OC(C)(C)[C@@H]1CC[C@]3(C)Oc4ccc(Br)cc4C=C3[C@H]21 (relative stereo) | 6.13 | 12.5 |  |  |
| Cn1c2c(c(=O)n(C)c1=O)[C@H]1C3=Cc4cc(Cl)ccc4O[C@@]3(C)CC[C@H]1C(C)(C)O2 (relative stereo) |  | 7.69 |  | Not Active |
| CC1(C)CC(=O)C2=C(C1)OC(C)(C)[C@@H]1CC[C@]3(C)Oc4ccccc4C=C3[C@H]21 (relative stereo) | 8.64 | 10.2 |  |  |
| CC1(C)OC2=C(C(=O)CCC2)[C@H]2C3=Cc4cc(Br)ccc4O[C@@]3(C)CC[C@H]21 (relative stereo) | 19.7 | 16.5 |  |  |
| CC1(C)Oc2c(c(=O)oc3ccccc23)[C@H]2C3=Cc4cc(Cl)ccc4O[C@@]3(C)CC[C@H]21 (relative stereo) | 0.26 | 20.4 |  |  |
| Cn1c2c(c(=O)n(C)c1=O)[C@H]1C3=Cc4ccccc4O[C@@]3(C)CC[C@H]1C(C)(C)O2 (relative stereo) | 3.8 | 8.47 |  |  |
| CC1(C)Oc2c(c(=O)oc3ccccc23)[C@H]2C3=Cc4ccccc4O[C@@]3(C)CC[C@H]21 (relative stereo) | 9.58 | 35.7 |  |  |
| CC1(C)OC2=C(C(=O)CCC2)[C@H]2C3=Cc4cc(Cl)ccc4O[C@@]3(C)CC[C@H]21 (relative stereo) | 4.01 | 2 |  |  |
